Data reported in patent publication US4908441A, “Deoxyadenosine compounds and methods of making and using the same” (Warner-Lambert Company, priority 1988, dated 1990).
≈ marks a conversion by molar mass, not a printed value.

Legend:
water solubility = type: physicochemical
[1] = mammals and Phase 1 clinical trial in patients; Carson et al. 1984; cited from earlier work
L1210 leukemia cells = test: in vivo assay for antileukemic activity (median lifespan); set-up: species or system mouse (male CD2 F1); key to % T/C Animals (1): Tx = Toxic; conditions: IP once daily Days 3-7
Procedure: Another test protocol is the in vivo assay for antileukemic activity. This assay is carried out with male CD2 F1 mice (six per treatment group) that weigh 22-24 grams at first treatment. L1210 leukemia cells are harvested from the peritoneal ascites fluid of a leukemic male DBA2 mouse and diluted with sterile 0.9% saline containing 2.1% W/V bovine serum albumin, 2000 U/ml penicillin, and 0.3 mg/ml streptomycin. The cells are counted with a Coulter counter. The mice are randomized, inoculated with 10^4 L1210 cells (0.5 ml, IP), and rerandomized to treatment or control groups on Day 0. The test compound is dissolved in 10% aqueous dimethylsulfoxide. Treatment groups are injected IP with 0.5 ml of freshly made DMSO solutions of the test compound once daily on Days 3-7. Control mice are treated with 0.5 ml 10% dimethylsulfoxide. All mice are weighed on Days 3 and 7 and all dying mice are autopsied to confirm the presence of advanced leukemia. A % T/C value [T/C computed as (median lifespan of the treated group/median lifespan of the control group)] greater than 125 is considered as showing significant activity. The results for nucleotide compounds and compositions of the invention exemplified by 3'-acetyl-2-chloro-2'-deoxy-5'-adenylic acid, monosodium salt, are presented in Table I.

Colon 08 = test: tumor growth delay assay, Colon 08; type: in vivo, mouse (CD2F1 hybrid); set-up: key to Rating: Tx: Toxic; ++++: High Activity; +++: Marked Activity; ++: Moderate Activity; +: Slight Activity; -: Inactive; UT: Unsatisfactory Test; conditions: 15 mg/kg (dose of greatest activity), IP
Procedure: (§1) A test protocol to show activity of the compounds of the present invention against solid tumors was that described below, for example, in inhibiting the growth of colon tumors.
(§2) The tumor growth delay assay assesses the antitumor activity of a test agent by measurement of the treatment-induced delay of tumor growth.
(§3) Test animals were CD2F1 hybrid mice derived from the inbred strain of tumor origin. After the required mice were randomized they received 30-50 mg subcutaneous implants of either colon 36 or colon 8 by trocar on Day 0. Samples of each donor tumor were incubated in thioglycolate media as a check for contamination of the tumor material. After tumor inoculation mice were rerandomized and distributed at 10 mice per treatment group (20 for control).
(§4) Drug treatment was initiated when tumors reached measurement in two dimensions by the formula:
(§5) tumor weight (mg)=(a+b^2)
(§6) where a and b are the tumor length and width, respectively. Drug, suspended in methyl-cellulose, was administered intraperitoneally Q4HX3 for nine consecutive days in a range of toxic to nontoxic doses. Tumor-bearing control groups were injected with methyl-cellulose. Animal survival was monitored daily. Tumors were measured twice weekly and animal weights recorded on a weekly basis. All dead mice were autopsied to determine the cause of death (drug or tumor). Any mouse bearing a tumor larger than the smallest lethal control tumor for two consecutive measurements was sacrificed, provided that greater than 25 days had elapsed since last treatment. Any tumor-free mouse was retained long enough so that a single surviving tumor cell at last treatment could grow to an unmistakable subcutaneous tumor.
(§7) T/C was calculated based on the difference in days required for the treated (T) and control (C) groups to reach an evaluation size of 1000 mg. Gross and net logs of cell kill were determined based on standard methodologies. The degree of activity or rating is a function of cell kill. Activity is defined in accordance with the standard methodologies as follows: […]

Colon 36 = test: tumor growth delay assay, Colon 36; type: in vivo, mouse (CD2F1 hybrid); set-up: key to Rating: Tx: Toxic; ++++: High Activity; +++: Marked Activity; ++: Moderate Activity; +: Slight Activity; -: Inactive; UT: Unsatisfactory Test; conditions: 9.5 mg/kg (dose of greatest activity), IP
Procedure: as §1, §2, §3, §4, §5, §6, §7

[2] = difference in days to reach 1000 mg

water solubility (in words) (water solubility)	solubility (water solubility; in water) [µg/mL]	Compound	antileukemic and immunosuppressive activity [1]	% T/C Animals (1) (L1210 leukemia cells; 48 mg/kg, >125 significant) [%]	% T/C Animals (2) (L1210 leukemia cells; 48 mg/kg, >125 significant) [%]	% T/C Animals (1) (L1210 leukemia cells; 77 mg/kg, >125 significant) [%]	% T/C Animals (2) (L1210 leukemia cells; 77 mg/kg, >125 significant) [%]	% T/C Animals (1) (L1210 leukemia cells; 124 mg/kg)	% T/C Animals (2) (L1210 leukemia cells; 124 mg/kg, >125 significant) [%]	% T/C Animals (1) (L1210 leukemia cells; 200 mg/kg)	Rating (Colon 08)	T/C (Colon 08; [2])	Net Kill (Colon 08; net logs of cell kill)	Rating (Colon 36)	T/C (Colon 36; [2])	Net Kill (Colon 36; net logs of cell kill)
sparingly soluble in water	~1000 (≈ 3.5 mM)	Nc1nc(Cl)nc2c1ncn2[C@H]1C[C@H](O)[C@@H](CO)O1 [2-chloro-2'-deoxyadenosine]	antileukemic and immunosuppressive activity	–	–	–	–	–	–	–	–	–	–	–	–	–
–	–	CC(=O)O[C@H]1C[C@H](n2cnc3c(N)nc(Cl)nc32)O[C@@H]1COP(=O)([O-])O.O.[Na+] [Example 1, 2-Chloro-2'-deoxy-5'-adenylic Acid, 3'-acetate, Monosodium Salt, Monohydrate]	–	124	149	126	112	Tx	87	Tx	+	12.9	0.4	++	14.0	0.6
